{"source": "ChEMBL document CHEMBL1131746", "about": "“Synthesis of taxoids 5. Synthesis and evaluation of novel water-soluble prodrugs of a 3'-desphenyl-3'-cyclopropyl analogue of docetaxel” (Bioorg Med Chem Lett, 1999)", "key": {"[1]": {"experiment": "Solubility in saline", "type": "physicochemical", "details": "read-out: S"}, "[2]": {"test_system": "Mus musculus", "experiment": "Compound was evaluated for antitumor activity by iv administration against B16 melanoma implanted sc in mice at dose 12.5 mg/kg/day", "type": "functional"}, "[3]": {"test_system": "Mus musculus", "experiment": "Antitumor activity was measured as change in body weight on day 10 in mice implanted with B16 melanoma cells at dose of 12.5 mg/kg/day", "type": "functional"}, "[4]": {"experiment": "Inhibitory concentration required against Colon320 human colon cancer cell line was determined", "type": "functional, cell-based", "details": "cancer cell lines"}, "[5]": {"test_system": "OVCAR-3", "experiment": "Inhibitory concentration required against OVCAR-3 human ovarian cancer cell line was determined", "type": "functional, cell-based"}, "[6]": {"test_system": "SK-LU-1", "experiment": "Inhibitory concentration required against SK-LU-1 human lung cancer cell line was determined", "type": "functional, cell-based"}, "[7]": {"test_system": "Mus musculus", "experiment": "Compound was evaluated for antitumor activity by iv administration against B16 melanoma implanted sc in mice at dose 20 mg/kg/day", "type": "functional"}, "[8]": {"test_system": "SK-BR-3", "experiment": "Inhibitory concentration required against SK-BR-3 human breast cancer cell line was determined", "type": "functional, cell-based"}, "[9]": {"experiment": "Inhibitory concentration required against MKN1 human stomach cancer cell line was determined", "type": "functional, cell-based", "details": "cancer cell lines"}, "[10]": {"test_system": "WiDr", "experiment": "Inhibitory concentration required against WiDr human colon cancer cell line was determined", "type": "functional, cell-based"}, "[11]": {"test_system": "Mus musculus", "experiment": "Antitumor activity was measured as change in body weight on day 10 in mice implanted with B16 melanoma cells at dose of 20 mg/kg/day", "type": "functional"}, "[12]": {"experiment": "Ratio of IC50 of docetaxel / IC50 against MKN1 cell line was determined", "type": "functional, MKN-1"}, "[13]": {"experiment": "Ratio of IC50 of docetaxel / IC50 against OVCAR-3 cell line was determined", "type": "functional"}, "[14]": {"experiment": "Ratio of IC50 of docetaxel / IC50 against Colon 320 cell line was determined", "type": "functional, COLO 320"}, "[15]": {"test_system": "Mus musculus", "experiment": "Compound was evaluated for antitumor activity by iv administration against B16 melanoma implanted sc in mice at a dose of 6.3 mg/kg/day", "type": "functional"}, "[16]": {"test_system": "Mus musculus", "experiment": "Antitumor activity was measured as change in body weight on day 10 in mice implanted with B16 melanoma cells at a dose of 6.3 mg/kg/day", "type": "functional"}, "[17]": {"experiment": "Ratio of IC50 of docetaxel / IC50 against SK-LU-1 cell line was determined", "type": "functional"}, "[18]": {"experiment": "Ratio of IC50 of docetaxel / IC50 against WiDr cell line was determined", "type": "functional"}, "[19]": {"experiment": "Ratio of IC50 of docetaxel / IC50 against SK-BR-3 cell line was determined", "type": "functional"}}}
{"smiles": "CC(=O)O[C@@]12CO[C@@H]1C[C@H](O)[C@@]1(C)C(=O)[C@H](O)C3=C(C)[C@@H](OC(=O)[C@H](OC(=O)OCOC(=O)C[C@H](N)C(=O)O)[C@@H](NC(=O)OC(C)(C)C)C4CC4)C[C@@](O)([C@@H](OC(=O)c4ccccc4)[C@H]21)C3(C)C", "values": [{"measurement": "solubility", "setting": "[1]", "result": 1000, "unit": "µg/mL"}, {"measurement": "ILS at 12.5 mg/kg/day", "setting": "[2]", "result": 212, "unit": "%"}, {"measurement": "Body weight change", "setting": "[3]", "result": 3.3, "unit": "%"}]}
{"smiles": "CC(=O)O[C@@]12CO[C@@H]1C[C@H](O)[C@@]1(C)C(=O)[C@H](O)C3=C(C)[C@@H](OC(=O)[C@H](OC(=O)OCOC(=O)C[C@@H](N)C(N)=O)[C@@H](NC(=O)OC(C)(C)C)C4CC4)C[C@@](O)([C@@H](OC(=O)c4ccccc4)[C@H]21)C3(C)C", "values": [{"measurement": "solubility", "setting": "[1]", "result": 50000, "unit": "µg/mL"}, {"measurement": "ILS at 12.5 mg/kg/day", "setting": "[2]", "result": 127, "unit": "%"}, {"measurement": "Body weight change", "setting": "[3]", "result": -11.1, "unit": "%"}]}
{"smiles": "CC(=O)O[C@@]12CO[C@@H]1C[C@H](O)[C@@]1(C)C(=O)[C@H](O)C3=C(C)[C@@H](OC(=O)[C@H](O)[C@@H](NC(=O)OC(C)(C)C)c4ccccc4)C[C@@](O)([C@@H](OC(=O)c4ccccc4)[C@H]21)C3(C)C.O.O.O", "note": "[DOCETAXEL]", "values": [{"measurement": "IC50", "setting": "[4]", "result": 4.8, "unit": "nM"}, {"measurement": "IC50", "setting": "[5]", "result": 1.2, "unit": "nM"}, {"measurement": "IC50", "setting": "[6]", "result": 1.8, "unit": "nM"}, {"measurement": "ILS at 20 mg/kg/day", "setting": "[7]", "result": 149, "unit": "%"}, {"measurement": "IC50", "setting": "[8]", "result": 4.7, "unit": "nM"}, {"measurement": "IC50", "setting": "[9]", "result": 1.7, "unit": "nM"}, {"measurement": "IC50", "setting": "[10]", "result": 0.43, "unit": "nM"}, {"measurement": "Body weight change", "setting": "[11]", "result": -13, "unit": "%"}]}
{"smiles": "CC(=O)O[C@@]12CO[C@@H]1C[C@H](O)[C@@]1(C)C(=O)[C@H](O)C3=C(C)[C@@H](OC(=O)[C@H](O)[C@@H](NC(=O)OC(C)(C)C)C4CC4)C[C@@](O)([C@@H](OC(=O)c4ccccc4)[C@H]21)C3(C)C", "values": [{"measurement": "IC50", "setting": "[4]", "result": 0.21, "unit": "nM"}, {"measurement": "Ratio", "setting": "[12]", "result": 1.4}, {"measurement": "Ratio", "setting": "[13]", "result": 2.3}, {"measurement": "IC50", "setting": "[5]", "result": 0.52, "unit": "nM"}, {"measurement": "IC50", "setting": "[6]", "result": 1, "unit": "nM"}, {"measurement": "Ratio", "setting": "[14]", "result": 23}, {"measurement": "ILS at 6.3 mg/kg/day", "setting": "[15]", "result": 187, "unit": "%"}, {"measurement": "IC50", "setting": "[8]", "result": 1.1, "unit": "nM"}, {"measurement": "Body weight change", "setting": "[16]", "result": -7.5, "unit": "%"}, {"measurement": "IC50", "setting": "[9]", "result": 1.2, "unit": "nM"}, {"measurement": "IC50", "setting": "[10]", "result": 0.027, "unit": "nM"}, {"measurement": "Ratio", "setting": "[17]", "result": 1.8}, {"measurement": "Ratio", "setting": "[18]", "result": 16}, {"measurement": "Ratio", "setting": "[19]", "result": 4.3}]}
{"smiles": "CNC(=O)[C@@H](N)CC(=O)OCOC(=O)O[C@@H](C(=O)O[C@H]1C[C@@]2(O)[C@@H](OC(=O)c3ccccc3)[C@@H]3[C@]4(OC(C)=O)CO[C@@H]4C[C@H](O)[C@@]3(C)C(=O)[C@H](O)C(=C1C)C2(C)C)[C@@H](NC(=O)OC(C)(C)C)C1CC1", "values": [{"measurement": "solubility", "setting": "[1]", "result": 10000, "unit": "µg/mL"}, {"measurement": "ILS at 12.5 mg/kg/day", "setting": "[2]", "result": 185, "unit": "%"}, {"measurement": "Body weight change", "setting": "[3]", "result": -0.5, "unit": "%"}]}
{"smiles": "CCOC(=O)[C@@H](N)CC(=O)OCOC(=O)O[C@@H](C(=O)O[C@H]1C[C@@]2(O)[C@@H](OC(=O)c3ccccc3)[C@@H]3[C@]4(OC(C)=O)CO[C@@H]4C[C@H](O)[C@@]3(C)C(=O)[C@H](O)C(=C1C)C2(C)C)[C@@H](NC(=O)OC(C)(C)C)C1CC1", "values": [{"measurement": "solubility", "setting": "[1]", "result": 10000, "unit": "µg/mL"}, {"measurement": "ILS at 12.5 mg/kg/day", "setting": "[2]", "result": 213, "unit": "%"}, {"measurement": "Body weight change", "setting": "[3]", "result": -2.9, "unit": "%"}]}
{"smiles": "CC(=O)O[C@@]12CO[C@@H]1C[C@H](O)[C@@]1(C)C(=O)[C@H](O)C3=C(C)[C@@H](OC(=O)[C@H](OC(=O)OCOC(=O)C[C@H](N)C(N)=O)[C@@H](NC(=O)OC(C)(C)C)C4CC4)C[C@@](O)([C@@H](OC(=O)c4ccccc4)[C@H]21)C3(C)C", "values": [{"measurement": "solubility", "setting": "[1]", "result": 5000, "unit": "µg/mL"}, {"measurement": "ILS at 12.5 mg/kg/day", "setting": "[2]", "result": 227, "unit": "%"}, {"measurement": "Body weight change", "setting": "[3]", "result": -3.2, "unit": "%"}]}
